Source: PubChem BioAssay AID1259407 (Chemical Carcinogenesis Research Information System (CCRIS), 2018)
Activity calls are given as the source filed them. How the calls were made is not given here.

System: CCRIS mutagenicity, Ames/micronucleus/aberration tests
Assay: CCRIS mutagenicity studies
[1] = Test System: AMES SALMONELLA TYPHIMURIUM, Strain/Indicator: TA100, Metabolic Activation: NONE, Method: STANDARD PLATE
[2] = Test System: AMES SALMONELLA TYPHIMURIUM, Strain/Indicator: TA100, Metabolic Activation: RAT, LIVER, S-9, AROCLOR 1254, Method: STANDARD PLATE
[3] = Test System: AMES SALMONELLA TYPHIMURIUM, Strain/Indicator: TA98, Metabolic Activation: NONE, Method: PREINCUBATION
[4] = Test System: AMES SALMONELLA TYPHIMURIUM, Strain/Indicator: TA100, Metabolic Activation: NONE, Method: PREINCUBATION
[5] = Test System: AMES SALMONELLA TYPHIMURIUM, Strain/Indicator: TA98, Metabolic Activation: NONE, Method: STANDARD PLATE
[6] = Test System: AMES SALMONELLA TYPHIMURIUM, Strain/Indicator: TA98, Metabolic Activation: RAT, LIVER, S-9, AROCLOR 1254, Method: STANDARD PLATE
[7] = Test System: AMES SALMONELLA TYPHIMURIUM, Strain/Indicator: TA1535, Metabolic Activation: NONE, Method: STANDARD PLATE
[8] = Test System: AMES SALMONELLA TYPHIMURIUM, Strain/Indicator: TA1535, Metabolic Activation: RAT, LIVER, S-9, AROCLOR 1254, Method: STANDARD PLATE
[9] = Test System: AMES SALMONELLA TYPHIMURIUM, Strain/Indicator: TA1537, Metabolic Activation: NONE, Method: STANDARD PLATE
[10] = Test System: AMES SALMONELLA TYPHIMURIUM, Strain/Indicator: TA1537, Metabolic Activation: RAT, LIVER, S-9, AROCLOR 1254, Method: STANDARD PLATE
[11] = Test System: AMES SALMONELLA TYPHIMURIUM, Strain/Indicator: TA1538, Metabolic Activation: NONE, Method: STANDARD PLATE
[12] = Test System: AMES SALMONELLA TYPHIMURIUM, Strain/Indicator: TA1538, Metabolic Activation: RAT, LIVER, S-9, AROCLOR 1254, Method: STANDARD PLATE

For `O=[N+]([O-])c1cc2c(ccc3cc(N(CCCl)CCCl)ccc32)o1`, the mutagenic call (Test System: AMEA SALMONELLA TYPHIMURIUM, Strain/Indicator: TA100(NR), Metabolic Activation: NONE, Method: STANDARD PLATE) was “active; positive”, the mutagenic call (Test System: AMES SALMONELLA TYPHIMURIUM, Strain/Indicator: TA100(NR), Metabolic Activation: RAT, LIVER, S-9, AROCLOR 1254, Method: STANDARD PLATE) was “active; positive” and the mutagenic call [1] was “active; positive”. The mutagenic call [2] was “active; positive”.

`COc1ccc(O)c(C(C)(C)C)c1` was tested, and the mutagenic call (Test System: AMES SALMONELLA TYPHIMURIUM, Strain/Indicator: TA97, Metabolic Activation: NONE, Method: PREINCUBATION) was “inactive; negative”, the mutagenic call (Test System: AMES SALMONELLA TYPHIMURIUM, Strain/Indicator: TA97, Metabolic Activation: RAT, LIVER, S-9, PCB, Method: PREINCUBATION) was “inactive; negative” and the mutagenic call [3] was “inactive; negative”. For the same compound, the mutagenic call (Test System: AMES SALMONELLA TYPHIMURIUM, Strain/Indicator: TA98, Metabolic Activation: RAT, LIVER, S-9, PCB, Method: PREINCUBATION) was “inactive; negative”, the mutagenic call [4] was “inactive; negative” and the mutagenic call (Test System: AMES SALMONELLA TYPHIMURIUM, Strain/Indicator: TA100, Metabolic Activation: RAT, LIVER, S-9, PCB, Method: PREINCUBATION) was “inactive; negative”. The mutagenic call (Test System: AMES SALMONELLA TYPHIMURIUM, Strain/Indicator: TA102, Metabolic Activation: NONE, Method: PREINCUBATION) was “inactive; negative” and the mutagenic call (Test System: AMES SALMONELLA TYPHIMURIUM, Strain/Indicator: TA102, Metabolic Activation: RAT, LIVER, S-9, PCB, Method: PREINCUBATION) was “inactive; negative”.

`Cn1c(N)nc2cc3ccccc3cc21` was tested, and the mutagenic call (Test System: AMES SALMONELLA TYPHIMURIUM, Strain/Indicator: TA98, Metabolic Activation: RAT, LIVER, S-9, AROCLOR 1254A, Method: STANDARD PLATE) was “active; positive” and the mutagenic call (Test System: AMES SALMONELLA TYPHIMURIUM, Strain/Indicator: YG1024, Metabolic Activation: RAT, LIVER, S-9, AROCLOR 1254A, Method: STANDARD PLATE) was “active; positive”.

`C/C=C\C1=CC(=O)[C@]23C[C@H]2C(C)(C)O[C@]3(O)C1=O` was tested, and the mutagenic call (Test System: AMES SALMONELLA TYPHIMURIUM, Strain/Indicator: TA97, Metabolic Activation: NONE) was “inactive; negative”, the mutagenic call (Test System: AMES SALMONELLA TYPHIMURIUM, Strain/Indicator: TA98, Metabolic Activation: NONE) was “inactive; negative” and the mutagenic call (Test System: AMES SALMONELLA TYPHIMURIUM, Strain/Indicator: TA100, Metabolic Activation: NONE) was “active; positive”. For the same compound, the mutagenic call (Test System: AMES SALMONELLA TYPHIMURIUM, Strain/Indicator: TA102, Metabolic Activation: NONE) was “active; positive”.

With `c1ccc2c(c1)-c1cccc3c1c-2cc1ccccc13` the mutagenic call (Test System: AMES SALMONELLA TYPHIMURIUM, Strain/Indicator: TA98, Metabolic Activation: HAMSTER, LIVER, S-9, AROCLOR 1254 (10%), Method: PREINCUBATION) was “active; positive”, the mutagenic call (Test System: AMES SALMONELLA TYPHIMURIUM, Strain/Indicator: TA98, Metabolic Activation: MOUSE, LIVER, S-9, AROCLOR 1254, Method: STANDARD PLATE) was “active; positive” and the mutagenic call [3] was “inactive; negative”. For the same compound, the mutagenic call (Test System: AMES SALMONELLA TYPHIMURIUM, Strain/Indicator: TA98, Metabolic Activation: RAT, LIVER, S-9, AROCLOR 1254 (10%), Method: PREINCUBATION) was “inactive; negative”, the mutagenic call (Test System: AMES SALMONELLA TYPHIMURIUM, Strain/Indicator: TA100, Metabolic Activation: HAMSTER, LIVER, S-9, AROCLOR 1254 (10%), Method: PREINCUBATION) was “active; positive” and the mutagenic call [4] was “inactive; negative”. The mutagenic call (Test System: AMES SALMONELLA TYPHIMURIUM, Strain/Indicator: TA100, Metabolic Activation: RAT, LIVER, S-9, AROCLOR 1254) was “active; positive”, the mutagenic call (Test System: AMES SALMONELLA TYPHIMURIUM, Strain/Indicator: TA100, Metabolic Activation: RAT, LIVER, S-9, AROCLOR 1254 (10%), Method: PREINCUBATION) was “active; positive” and the mutagenic call [2] was “active; positive”.

For `O=[N+]([O-])c1ccc(-c2nc(N(CCO)CCO)c3ccccc3n2)s1`, the mutagenic call [5] was “active; positive” and the mutagenic call [1] was “active; positive”.

In the case of `O=C(O)c1ccccc1Nc1cc(Cl)ccc1C(=O)O`, the mutagenic call [3] was “inactive; negative”, the mutagenic call [5] was “inactive; negative” and the mutagenic call (Test System: AMES SALMONELLA TYPHIMURIUM, Strain/Indicator: TA98, Metabolic Activation: RAT, LIVER, S-9, AROCLOR 1254, Method: PREINCUBATION) was “inactive; negative”. For the same compound, the mutagenic call [6] was “inactive; negative”, the mutagenic call [1] was “inactive; negative” and the mutagenic call [2] was “inactive; negative”. For the same compound, the mutagenic call [7] was “inactive; negative”, the mutagenic call [8] was “inactive; negative” and the mutagenic call [9] was “inactive; negative”. For the same compound, the mutagenic call [10] was “inactive; negative”, the mutagenic call [11] was “inactive; negative” and the mutagenic call [12] was “inactive; negative”.

For `Clc1cc(Cl)c(Cl)cc1Cl`, the mutagenic call (End Point: IN VITRO CHROMOSOMAL ABERRATIONS, Test System: CHO-LB CELLS, Metabolic Activation: NONE) was “inactive; negative”, the mutagenic call (End Point: IN VITRO CHROMOSOMAL ABERRATIONS, Test System: CHO-LB CELLS, Metabolic Activation: RAT, LIVER, S-9, AROCLOR 1254) was “inactive; negative” and the mutagenic call (Test System: AMES SALMONELLA TYPHIMURIUM, Strain/Indicator: TA98, Metabolic Activation: HAMSTER, LIVER, S-9, AROCLOR 1254, Method: STANDARD PLATE) was “inactive; negative”. For the same compound, the mutagenic call [5] was “inactive; negative”, the mutagenic call [6] was “inactive; negative” and the mutagenic call (Test System: AMES SALMONELLA TYPHIMURIUM, Strain/Indicator: TA100, Metabolic Activation: HAMSTER, LIVER, S-9, AROCLOR 1254, Method: STANDARD PLATE) was “inactive; negative”. For the same compound, the mutagenic call [1] was “inactive; negative”, the mutagenic call [2] was “inactive; negative” and the mutagenic call (Test System: AMES SALMONELLA TYPHIMURIUM, Strain/Indicator: TA1535, Metabolic Activation: HAMSTER, LIVER, S-9, AROCLOR 1254, Method: STANDARD PLATE) was “inactive; negative”. For the same compound, the mutagenic call [7] was “inactive; negative”, the mutagenic call [8] was “inactive; negative” and the mutagenic call (Test System: AMES SALMONELLA TYPHIMURIUM, Strain/Indicator: TA1537, Metabolic Activation: HAMSTER, LIVER, S-9, AROCLOR 1254, Method: STANDARD PLATE) was “inactive; negative”. For the same compound, the mutagenic call [9] was “inactive; negative”, the mutagenic call [10] was “inactive; negative” and the mutagenic call (Test System: AMES SALMONELLA TYPHIMURIUM, Strain/Indicator: TA1538, Metabolic Activation: HAMSTER, LIVER, S-9, AROCLOR 1254, Method: STANDARD PLATE) was “inactive; negative”. The mutagenic call [11] was “inactive; negative”, the mutagenic call [12] was “inactive; negative” and the mutagenic call (Test System: MOUSE LYMPHOMA, Strain/Indicator: L5178Y (TK+/TK-), Metabolic Activation: NONE, Method: SUSPENSION/PLATE) was “inactive; negative. reevaluation of results: negative”. For the same compound, the mutagenic call (Test System: MOUSE LYMPHOMA, Strain/Indicator: L5178Y (TK+/TK-), Metabolic Activation: RAT, LIVER, S-9, AROCLOR 1254, Method: SUSPENSION/PLATE) was “inactive; negative. reevaluation of results: negative”.
